In patent publication US20200368315A1, “ANTIMICROBIAL PEPTIDES AND ADMIXTURES THEREOF SHOWING ANTIMICROBIAL ACTIVITY AGAINST GRAM-NEGATIVE PATHOGENS” (priority 2017, published 2020):
≈ marks a conversion by molar mass, not a printed value. Where “and” joins values, the source holds several entries; their conditions need not be identical. Identical values can stand only once. Like-named read-outs stand apart in the source and are kept apart here.

Experiments:
[1] = tested on: E. coli LMG15862; experiment: microbe, parasite or virus in culture; type: cell-based, Escherichia coli
Protocol: (§1) Escherichia coli, Klebsiella pneumoniae, Pseudomonas aeruginosa, Acinetobacter baumannii, Enterobacter aerogenes were grown in Luria-Bertani (LB) broth shaken (200 rpm) or on LB agar at 37° C. […] MICs tests were performed in duplicate by a liquid growth inhibition microdilution assays in sterilized polypropylene microtiter plates according to Wiegand and […] [27]. […] The suspension was diluted in a ratio of 1:100 using Mueller Hinton Broth (MHB) and the final inoculum is 5*10^5 CFU/mL. […] The antimicrobials were diluted serially by 1/2 one by one and 50 uL diluted bacterial suspension were added to each well to make the final volume to be 100 uL. Growth control was accomplished by remove 10 uL from well 11 and dilute 1000 times to plate 1/10 suspension on the solid medium. […] The number of colonies on the control agar plate should be around 50 to ensure the concentration of the inoculum and the effectiveness of the experiment. The lowest concentration of the antimicrobials that inhibits visible growth of the indicator is identified as MIC.

[2] = tested on: K. pneumoniae LMG20218; experiment: microbe, parasite or virus in culture; type: cell-based, Klebsiella pneumoniae; conditions: LMG20218
Protocol: as §1

[3] = tested on: P. aeruginosa LMG 6395; experiment: microbe, parasite or virus in culture; type: cell-based, Pseudomonas aeruginosa; conditions: LMG 6395
Protocol: as §1

[4] = tested on: A. baumannii LMG01041; experiment: microbe, parasite or virus in culture; type: cell-based, Acinetobacter baumannii; conditions: LMG01041
Protocol: as §1

[5] = tested on: E. aerogenes LMG 02094; experiment: microbe, parasite or virus in culture; type: cell-based, Enterobacter aerogenes; conditions: LMG 02094
Protocol: as §1

[6] = tested on: E. coli LMG15862; type: cell-based, Escherichia coli
Description: (§2) The test of synergistic effect was processed by conducting standard chequerboard broth microdilution assays. Nisin (Drug X) was loaded two fold serially diluted from row 1 to 10 in X-axis while GNPs (Drug Y) were loaded in eight two fold serially diluted concentrations from line A to H in Y-axis (FIG. 1). The original concentrations of peptides were MICs of each. Row 11 are used as growth control with no peptide was included, while row 12 with MHB medium-only wells was included as a sterility control as referred before. 50 uL fresh bacterial suspension was added to well 1-11 and final volume of each well on the plate is 100 uL.
(§3) To determine whether the combination therapy is additive, synergistic or antagonistic, fractional inhibitory concentration (FIC) indices were calculated. FICI=FICa+FICb=MICac/MICa+MICbc/MICb. The MICa/MICb is the MIC of compound A/B alone. MICac is the MIC of compound A in combination with compound B and MICbc is the MIC of compound B when it was combination with compound A. […]. FICa is FIC of compound A while FICb is FIC of compound B. The FICI is interpreted as follows: synergistic, FICI≤0.5; additive, 0.5<FICI<1; indifferent, 1<FICI<2; antagonistic, FICI>2.

[7] = tested on: K. pneumoniae LMG20218; type: cell-based, Klebsiella pneumoniae
Description: as §2, §3

[8] = tested on: P. aeruginosa LMG 6395; type: cell-based, Pseudomonas aeruginosa
Description: as §2, §3

[9] = tested on: A. baumannii LMG01041; type: cell-based, Acinetobacter baumannii
Description: as §2, §3

[10] = tested on: E. aerogenes LMG 02094; type: cell-based, Enterobacter aerogenes
Description: as §2, §3

[11] = tested on: A. baumannii LMG01041; conditions: MIC of GNP alone
Protocol: (§4) The test of synergistic effect was processed by conducting standard chequerboard broth microdilution assays. […] Row 11 are used as growth control with no peptide was included, while row 12 with MHB medium-only wells was included as a sterility control as referred before. 50 uL fresh bacterial suspension was added to well 1-11 and final volume of each well on the plate is 100 uL.
(§5) The test of synergistic effect was processed as method 1.4.
as §3

[12] = tested on: E. aerogenes LMG 02094
Protocol: as §4, §5, §3

[13] = tested on: E. coli LMG15862
Protocol: as §4, §5, §3

[14] = tested on: K. pneumoniae LMG20218
Protocol: as §4, §5, §3

[15] = tested on: P. aeruginosa LMG 6395
Protocol: as §4, §5, §3

[16] = tested on: L. lactis MG1363; conditions: MG1363
[17] = MIC of GNP when used with the MICac concentration of nisin
[18] = MIC of nisin in combination with the GNP at the MICbc concentration
[19] = MIC of GNP in combination with vancomycin at the MICac concentration
[20] = MIC of vancomycin in combination with the GNP at the MICbc concentration

Question: How did the “MICb (GNP concentration when used alone)” value ([1]; L-form GNP, E. coli LMG15862, Table 6) turn out when CC[C@H](C)[C@H](NC(=O)[C@H](CCCNC(=N)N)NC(=O)[C@H](CCC(N)=O)NC(=O)[C@@H](NC(=O)[C@@H](NC(=O)[C@@H](N)CCCNC(=N)N)[C@@H](C)CC)C(C)C)C(=O)N[C@@H](CCCCN)C(=O)N[C@@H](CCCCN)C(=O)N[C@@H](Cc1c[nH]c2ccccc12)C(=O)N[C@@H](CC(C)C)C(=O)N[C@@H](CCCNC(=N)N)C(N)=O [GNP-8] was run?
Answer: 12 µM

Question: And the MIC value ([1]; LMG15862)?
Answer: 12 µM (≈ 17.9 µg/mL)

Question: What about the MIC value [2] of the same compound?
Answer: 32 µM (≈ 47.8 µg/mL)

Question: And the “MICb (MIC of GNP alone)” value [2]?
Answer: 32 µM

Question: What about the MIC value [3] of the same compound?
Answer: 16 µM (≈ 23.9 µg/mL)

Question: What about the “MICb (MIC of GNP alone)” value [3] of the same compound?
Answer: 16 µM

Question: What about the MIC value [4] of the same compound?
Answer: >64 µM

Question: What about the “MICb (MIC of GNP alone)” value [4] of the same compound?
Answer: >64 µM

Question: What about the MIC value [5] of the same compound?
Answer: 128 µM (≈ 191 µg/mL)

Question: And the “MICb (MIC of GNP alone)” value [5]?
Answer: 128 µM

Question: And the MICb ([6]; MIC of GNP alone)?
Answer: 12 µM

Question: What about the MICbc [6, 17] of the same compound?
Answer: 1.5 µM

Question: And the MICac [6, 18]?
Answer: 1.5 µM

Question: What about the MICb ([7]; MIC of GNP alone) of the same compound?
Answer: 32 µM

Question: What about the MICbc [7, 17] of the same compound?
Answer: 1 µM

Question: What about the MICac [7, 18] of the same compound?
Answer: 0.75 µM

Question: And the MICb ([8]; MIC of GNP alone)?
Answer: 16 µM

Question: And the MICbc [8, 17]?
Answer: 0.5 µM

Question: And the MICac [8, 18]?
Answer: 4.5 µM

Question: What about the MICb ([9]; MIC of GNP alone) of the same compound?
Answer: >64 µM

Question: What about the MICbc [9, 17] of the same compound?
Answer: 4 µM

Question: And the MICac [9, 18]?
Answer: 0.19 µM

Question: And the MICb ([10]; MIC of GNP alone)?
Answer: 128 µM

Question: And the MICbc [10, 17]?
Answer: 1 µM

Question: What about the MICac [10, 18] of the same compound?
Answer: 4 µM

Question: What about the MICb [11] of the same compound?
Answer: >64 µM

Question: And the MICb ([12]; MIC of GNP alone)?
Answer: 128 µM

Question: What about the MICbc [12, 19] of the same compound?
Answer: 8 µM and 16 µM

Question: And the MICac [12, 20]?
Answer: 12 µM and 6 µM

Question: And the MICb ([13]; MIC of GNP alone)?
Answer: 12 µM

Question: And the MICbc [13, 19]?
Answer: 1.5 µM and 0.75 µM

Question: What about the MICac [13, 20] of the same compound?
Answer: 4 µM and 8 µM

Question: What about the MICb ([14]; MIC of GNP alone) of the same compound?
Answer: 32 µM

Question: What about the MICbc [14, 19] of the same compound?
Answer: 2 µM and 1 µM

Question: What about the MICac [14, 20] of the same compound?
Answer: 4 µM and 8 µM

Question: And the MICb ([15]; MIC of GNP alone)?
Answer: 16 µM

Question: And the MICbc [15, 19]?
Answer: 2 µM and 1 µM

Question: And the MICac [15, 20]?
Answer: 8 µM and 16 µM

Question: What about the “MIC value of antimicrobial compounds alone” value [16] of the same compound?
Answer: 24 µM
